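All cell lines were grown in 96-well plates and treated with compound for 48 hours. GI50 is the concentration that inhibits growth by half.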 The source made the active and inactive calls. Rule as the data show it: active = GI50 up to about 1.1 µM and inactive = higher.
Assays:
Assay in all cases: DTP human tumour cell line panel, 48 h
A549 = test system: A549
CCRF-CEM = test system: CCRF-CEM
HCT-15 = test system: HCT-15
IGROV-1 = test system: IGROV-1
M14 = test system: M14
MCF7 = test system: MCF7
MDA-MB-231 = test system: MDA-MB-231
MDA-MB-435 = test system: MDA-MB-435
Malme-3M = test system: Malme-3M
NCI-H460 = test system: NCI-H460
NCI-H522 = test system: NCI-H522
OVCAR-4 = test system: OVCAR-4
OVCAR-8 = test system: OVCAR-8
SF-268 = test system: SF-268
SF-295 = test system: SF-295
SN12C = test system: SN12C
UACC-257 = test system: UACC-257
UO-31 = test system: UO-31
OVCAR-3 = test system: OVCAR-3
SF-539 = test system: SF-539

SMILES | GI50 (A549) | GI50 (CCRF-CEM) | GI50 (HCT-15) | GI50 (IGROV-1) | GI50 (M14) | GI50 (MCF7) | GI50 (MDA-MB-231) | GI50 (MDA-MB-435) | GI50 (Malme-3M) | GI50 (NCI-H460) | GI50 (NCI-H522) | GI50 (OVCAR-4) | GI50 (OVCAR-8) | GI50 (SF-268) | GI50 (SF-295) | GI50 (SN12C) | GI50 (UACC-257) | GI50 (UO-31) | GI50 (OVCAR-3) | GI50 (SF-539)
C=C1C(=O)OC2CCN3CC=C(COC(=O)C(C)(O)C4(CO4)C1C)C23 (centres undefined) | > 100 µM (inactive) | > 100 µM (inactive) | > 100 µM | > 100 µM (inactive) | > 100 µM (inactive) | > 100 µM (inactive) | > 100 µM (inactive) | > 100 µM (inactive) | > 100 µM (inactive) | > 100 µM (inactive) | > 100 µM (inactive) | > 100 µM (inactive) | > 100 µM (inactive) | > 100 µM (inactive) | > 100 µM (inactive) | > 100 µM (inactive) | > 100 µM (inactive) | > 100 µM (inactive) |  | 
COc1ccc(N2C(=O)C3c4[nH]c5ccc(C)cc5c4C4CCC(C(C)C)CC4C3C2=O)cc1 (centres undefined) | > 100 µM (inactive) | 0.995 µM (active) | > 100 µM | > 100 µM (inactive) | > 100 µM (inactive) | > 100 µM (inactive) | > 100 µM (inactive) | > 100 µM (inactive) |  | > 100 µM (inactive) | > 100 µM (inactive) | > 100 µM (inactive) | > 100 µM (inactive) | 75.5 µM (inactive) | > 100 µM (inactive) | > 100 µM (inactive) | > 100 µM (inactive) | > 100 µM (inactive) | > 100 µM (inactive) | 
O=C(NCCC1CNc2ccccc21)OCc1ccccc1 (centres undefined) | > 100 µM (inactive) | 87.7 µM (inactive) | > 100 µM | > 100 µM (inactive) | > 100 µM (inactive) | > 100 µM (inactive) | > 100 µM (inactive) | > 100 µM (inactive) | > 100 µM (inactive) | > 100 µM (inactive) | > 100 µM (inactive) | > 100 µM (inactive) | > 100 µM (inactive) | > 100 µM (inactive) | > 100 µM (inactive) |  | > 100 µM (inactive) | > 100 µM (inactive) | > 100 µM (inactive) | 
O=c1[nH]c(=O)n(C2CC(O)C(COP(=O)(O)OC3CC(n4cc(F)c(=O)[nH]c4=O)OC3COP(=O)(O)OC3CC(n4cc(F)c(=O)[nH]c4=O)OC3COP(=O)(O)OC3CC(n4cc(F)c(=O)[nH]c4=O)OC3COP(=O)(O)OC3CC(n4cc(F)c(=O)[nH]c4=O)OC3COP(=O)(O)OC3CC(n4cc(F)c(=O)[nH]c4=O)OC3COP(=O)(O)OC3CC(n4cc(F)c(=O)[nH]c4=O)OC3COP(=O)(O)OC3CC(n4cc(F)c(=O)[nH]c4=O)OC3COP(=O)(O)OC3CC(n4cc(F)c(=O)[nH]c4=O)OC3COP(=O)(O)OC3CC(n4cc(F)c(=O)[nH]c4=O)OC3CO)O2)cc1F (centres undefined) | < 0.005 µM (active) |  | 0.309 µM | 0.0435 µM (active) | < 0.005 µM (active) | < 0.005 µM (active) | 9.33 µM (inactive) | 0.422 µM (active) |  | < 0.005 µM (active) | 0.015 µM (active) | 0.661 µM (active) | < 0.005 µM (active) | < 0.005 µM (active) | < 0.005 µM (active) | 0.00828 µM (active) | 0.578 µM (active) | < 0.005 µM (active) |  | < 0.005 µM (active)
Clc1cc(-c2csc(Cl)c2)cs1 | > 100 µM (inactive) | > 100 µM (inactive) | > 100 µM | > 100 µM (inactive) | > 100 µM (inactive) | > 100 µM (inactive) | > 100 µM (inactive) | > 100 µM (inactive) |  | > 100 µM (inactive) | > 100 µM (inactive) | > 100 µM (inactive) | > 100 µM (inactive) | > 100 µM (inactive) | > 100 µM (inactive) | > 100 µM (inactive) | > 100 µM (inactive) | > 100 µM (inactive) | > 100 µM (inactive) | > 100 µM (inactive)
COc1ccccc1C(=O)NO | > 100 µM (inactive) | > 100 µM (inactive) | > 100 µM | > 100 µM (inactive) | > 100 µM (inactive) | > 100 µM (inactive) | > 100 µM (inactive) | > 100 µM (inactive) |  | 62.7 µM (inactive) | 49.1 µM (inactive) | > 100 µM (inactive) | > 100 µM (inactive) | > 100 µM (inactive) | > 100 µM (inactive) | > 100 µM (inactive) | > 100 µM (inactive) | > 100 µM (inactive) | > 100 µM (inactive) | 
O=C(O)c1c(-c2ccccc2)c(=O)[nH]c2ccccc12 | > 100 µM (inactive) | > 100 µM (inactive) | > 100 µM | > 100 µM (inactive) | > 100 µM (inactive) | > 100 µM (inactive) | > 100 µM (inactive) | > 100 µM (inactive) | > 100 µM (inactive) | > 100 µM (inactive) | > 100 µM (inactive) | > 100 µM (inactive) | > 100 µM (inactive) | > 100 µM (inactive) | > 100 µM (inactive) | > 100 µM (inactive) | > 100 µM (inactive) | > 100 µM (inactive) | > 100 µM (inactive) | 
COc1cccc(-c2cc(O)c3cc(NC(C)=O)ccc3n2)c1 | 61.7 µM (inactive) | 5.6 µM (inactive) | 32 µM | 27.2 µM (inactive) | 27.2 µM (inactive) | 5.65 µM (inactive) | 31.4 µM (inactive) | 3.8 µM (inactive) | 5.05 µM (inactive) | 33 µM (inactive) | 5.11 µM (inactive) |  | 25.6 µM (inactive) | 6.3 µM (inactive) |  | 78 µM (inactive) | > 100 µM (inactive) | 71.6 µM (inactive) |  | 14.2 µM (inactive)
